Results published in ChEMBL document CHEMBL1128971, “Pyrazolo[3,4-d]pyrimidines: C4, C6 substitution leads to adenosine A1 receptor selectivity” (Bioorg Med Chem Lett, 1996).
pKi: −log10 of the molar value.

How the values were obtained:
[1] = molecular target: Adenosine receptors; A1 & A2a (Rattus norvegicus) (UniProt P25099+P30543); assay: Ratio of binding affinity against adenosine A1 receptor and adenosine A2a receptor; assay type: protein assay
Adenosine receptor A2a = Adenosine receptor A2a (Rattus norvegicus, UniProt P30543); assay: Inhibition of A2a agonist [3H]-CGS- 21680 binding to rat striatal membranes; assay type: cell membranes, Membrane
Adenosine receptor A1 = molecular target: T1, Adenosine receptor A1 (Rattus norvegicus, UniProt P25099); assay: Inhibition of A1 agonist (R)-[3H]N 6-(phenylisopropyl) adenosine binding to membranes from rat whole brain
T1 sequence (P25099 whole entry): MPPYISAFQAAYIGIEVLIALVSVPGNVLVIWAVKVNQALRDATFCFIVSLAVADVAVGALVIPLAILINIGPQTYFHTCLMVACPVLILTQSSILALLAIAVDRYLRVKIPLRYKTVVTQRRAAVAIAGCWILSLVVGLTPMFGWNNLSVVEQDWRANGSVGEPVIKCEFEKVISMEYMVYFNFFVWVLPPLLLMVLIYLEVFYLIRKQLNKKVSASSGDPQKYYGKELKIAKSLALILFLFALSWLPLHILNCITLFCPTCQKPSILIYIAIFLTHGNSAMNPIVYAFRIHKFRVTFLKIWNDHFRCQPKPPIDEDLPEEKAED

Chain of Adenosine receptors; A1 & A2a (Rattus norvegicus) (P30543 whole entry, looked up, one chain of several): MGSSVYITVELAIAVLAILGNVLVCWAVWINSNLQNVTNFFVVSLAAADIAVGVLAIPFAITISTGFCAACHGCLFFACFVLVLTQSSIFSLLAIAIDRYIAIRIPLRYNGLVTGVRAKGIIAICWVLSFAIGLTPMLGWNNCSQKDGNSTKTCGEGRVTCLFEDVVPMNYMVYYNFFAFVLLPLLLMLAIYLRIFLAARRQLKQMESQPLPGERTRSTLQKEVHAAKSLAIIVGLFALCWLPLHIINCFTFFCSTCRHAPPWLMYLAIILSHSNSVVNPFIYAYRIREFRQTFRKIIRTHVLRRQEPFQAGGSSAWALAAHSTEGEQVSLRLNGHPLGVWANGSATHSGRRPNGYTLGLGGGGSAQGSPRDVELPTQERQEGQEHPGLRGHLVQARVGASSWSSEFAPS
Chain of Adenosine receptor A2a (P30543 whole entry): as the sequence (P30543 whole entry, looked up, one chain of several) above

Compound	Ratio [1]	pKi (Adenosine receptor A2a)	pKi (Adenosine receptor A1)
CCCCC(Sc1nc(NC)c2cnn(-c3ccccc3)c2n1)C(N)=O (centres undefined)	331	–	–
CCCSc1nc(SC(CC)C(N)=O)nc2c1cnn2-c1ccccc1 (centres undefined)	13000	< 4.41	7.53
